Measurements from US7135497B1, “Treating neural conditions resulting from spinal cord contusions and other causes” (New York Medical College, priority 2000, dated 2006).

How the values were obtained:
[1] = system: cultured hippocampal neurons; conditions: in vitro; the NGF protected cultured hippocampal neurons from glutamate excitotoxicity; cited from earlier work
[2] = system: spinal cord contused rats; experiment: Spinal cord histomorphometry: % spared tissue at the contusion center; assay type: in vivo, rat; conditions: 6 weeks, 9 mg/L in drinking water
Description: (§1) Adult female Wistar rats (˜245 g) were obtained from Charles River Breeding Laboratories and housed in a temperature-regulated (23° C.) animal facility. The spinal cords were contused with a weight drop apparatus similar to the NYU impactor (See also Basso, D. M., M. S. Beattie, and I. C. Breslmahan, 1996, Graded histological and locomotor outcomes after spinal cord contusion using the NYU weight-drop device versus transection, Exp. Neurol. 139:244–256, incorporated by reference) at the level of T10. Prior to surgery, the rats were anesthetized with an injection of pentobarbital sodium (60 mg/kg ip) and laminectomy was performed aseptically at T9–T10 to expose the spinal cord. The spinous processes at T8 and T11 were fixed with clamps to prevent movement during contusion. Body temperature was maintained at 37° C. during the period of anesthesia with a temperature-controlled heating pad and rectal thermometer. Graded injuries were produced in groups of rats by dropping a 10 g rod with a tip diameter of 2.5 mm from heights of either 6.25, 12.5, 25 or 50 mm as in the experiments of Basso identified above. Following contusion, each incision was closed with woundclips. An additional four groups of identically contused rats received clenbuterol received (from Chinoin, Mexico City) that was administered by adding it to the drinking water at a dose of 9 mg/L. This concentration delivers clenbuterol at a rate of 1.6 mg/kg body wt./day. The animals had access to water and food in their cages immediately after recovery from surgery and throughout the experiment. Water consumption is not believed to be affected by the addition of clenbuterol. Oral dosing is particularly effective over prolonged periods because clenbuterol readily enters the circulation via the gut, has high receptor affinity and a relatively long half-life. In all, 8 treatment groups (Table I) were examined. All of the procedures involving vertebrate animals were approved by the Institutional Animal Care and Use Committee of New York Medical College. […]

[3] = system: spinal cord contused rats; experiment: Locomotor recovery (BBB scale) after weight-drop spinal cord contusion at T10; assay type: in vivo, rat
Description: as §1, with “examined.” for “examined. All of the procedures involving vertebrate animals were approved by the Institutional Animal Care and Use Committee of New York Medical College.”
Recovery of locomotor function was determined with BBB scale as previously described. […] For the three days following contusion and at one week intervals thereafter for a total of six weeks, each rat was scored for locomotor function according to the BBB scale. […] For several rats in treatment groups receiving 50 mm weight drops, treatment conditions became known and were scored by one observer. […]
To confirm that salbutamol, a β2-adrenoceptor agonist, can enhance recovery of locomotor function following spinal cord injury. Groups of untreated and salbutamol-treated rats were evaluated with the 21 point Basso, Beattie and Bresnahan (BBB) scale (FIG. 9) following spinal cord contusion with a weight-drop device (10 g, 25 mm drop), Salbutamol was administered via subcutaneously implanted osmotic minipumps (Alzet) that delivered 1 mg/kg body weight/day during the 28 day recovery period. […]

[4] = in vivo; cited from earlier work
interleukin-6 secretion = conditions: cited from earlier work
brain ischemia = conditions: in vivo; cited from earlier work
[5] = system: motor neuron degeneration (Mnd) mice; experiment: Motoneuron counts and abnormal eccentric nuclei in the lumbar spinal cord; assay type: in vivo, mouse
[6] = system: motor neuron degeneration (Mnd) mice; experiment: Forelimb and hindlimb grip strength in Mnd and WT mice; assay type: in vivo, mouse; conditions: 9 mg/L in drinking water until 37 weeks of age
Description: (§2) Forelimb and hindlimb grip strength was measured in groups of Mnd and wild type (WT) mice that were either treated with clenbuterol in the drinking H2O (9 mg/L) until 37 weeks of age or were untreated. Forelimb and hindlimb grip strength was reduced 44–66% in Mnd compared to WT mice (FIG. 6). Clenbuterol caused relative increases in forelimb grip strength that were greater in Mnd (75%) compared to WT (20%, P<0.05, t test) mice. […] These effects of genotype and clenbuterol treatment were paralleled by similar changes in muscle mass. Thus the hindlimb soleus and extensor digitorum longus muscles were reduced 27–32% in Mnd compared to WT mice (FIG. 7). Clenbuterol caused relative increases of 46% and 29% in soleus weight in Mnd and Wt mice, respectively.

[7] = system: motor neuron degeneration (Mnd) mice; experiment: Hindlimb muscle weight in Mnd and WT mice; assay type: in vivo, mouse; conditions: 9 mg/L in drinking water
Description: as §2

[8] = system: motor neuron degeneration (Mnd) mice; experiment: Behavioral tests of walking and hindlimb splaying (Messer and Flaherty), number of abnormal trials; assay type: in vivo, mouse; conditions: of 50 trials per week, from 31 to 37 weeks of age, clenbuterol-treated n=5, P<0.01 versus untreated
Description: Behavioral tests developed by Messer and Flaherty in their original description of the Mnd mice were also performed. As described in their publication (J. Neurogenetics 3:345–355, 1986), incorporated by reference, five tests of different aspects of walking and hindlimb splaying are run each week with 10 trials for each test for a total of 50 trials. The mean number of abnormal trials occurring in clenbuterol-treated (n=5) and untreated (n=7) Mnd mice were determined until the mice were 37 weeks of age at the end of the experiment (FIG. 8). Beginning at 31 weeks of age, there is a marked worsening of behavioral scores. […] The frequency of abnormal motoneurons in each mouse was highly correlated with locomotor scores. Clenbuterol reduced the frequency of abnormal motoneurons to 8.3±0.7% (P<0.015) indicating a neurotrophic effect of β2-agonist treatment.

Structure (SMILES): CC(C)(C)NCC(O)c1cc(Cl)c(N)c(Cl)c1 (stereo not shown) [clenbuterol]
- release of NGF [1]: caused the release of NGF
- sparing of spinal cord tissue accounted for by treatment ([2]; 12.5 mm weight drop): 23%
- sparing of spinal cord tissue accounted for by treatment ([2]; 25 mm weight drop): 33%
- sparing of spinal cord tissue accounted for by treatment ([2]; 50 mm weight drop): 34%
- improvement in final BBB score due to clenbuterol ([3]; 25 mm weight drop, versus untreated, 6 weeks): 9.3 levels
- increase in BBB score ([3]; 50 mm weight drop, fourth, fifth and sixth weeks, versus untreated): 5.1–5.8 levels
- mean of the final BBB scores ([3]; mean ±SE over the four clenbuterol-treated groups (6.25-50 mm weight drops), 6 weeks, 9 mg/L in drinking water, untreated 8.0±2.9, P<0.05): 13.2±1.5
- blood-brain barrier passage [4]: crosses the blood-brain barrier
- secretion of IL-6 (interleukin-6 secretion): greatly increases secretion of IL-6
- effect on hippocampal neurons following ischemia (brain ischemia): neuroprotective effects
- infarct volume due to brain ischemia (brain ischemia): reduced infarct volume
- motoneuron counts in the lumbar spinal cord [5]: not significantly reduced in Mnd mice or affected by clenbuterol
- frequency of abnormal motoneurons (abnormal eccentric nuclei) ([5]; clenbuterol-treated, untreated Mnd 12.6±0.9%, WT 2.3±0.2%, P<0.015): 8.3±0.7%
- increase in hindlimb grip strength ([6]; Mnd mice): 29%
- relative increase in forelimb grip strength ([6]; Mnd mice): 75%
- effect on hindlimb strength ([6]; WT mice): did not significantly affect
- relative increase in forelimb grip strength ([6]; WT mice): 20%
- increase in extensor digitorum longus muscle weight ([7]; Mnd mice): 21%
- relative increase in soleus weight ([7]; Mnd mice): 46%
- relative increase in soleus weight ([7]; Wt mice): 29%
- mean number of abnormal trials [8]: 6.3±1.6

Structure (SMILES): CC(C)(C)NCC(O)c1ccc(O)c(CO)c1 (stereo not shown) [salbutamol]
- recovery of locomotor function (BBB scale) ([3]; 10 g, 25 mm drop, 1 mg/kg body weight/day by subcutaneous osmotic minipump, 28 days, versus untreated control, P<0.05): significantly greater
